Here are results for eight compounds from patent US8211895B2, “Capped pyrazinoylguanidine sodium channel blockers” (Parion Sciences, Inc., priority 2005, dated 2012).

The term melting point denotes the temperature, or range, at which the solid turns liquid.

Structures are written as SMILES.

Test system in the first data set: not given
Assay: not given
Details: not given
The compound `COC(=O)CC(CC(=O)OC)NCCOc1ccc(CCCCNC(N)=NC(=O)c2nc(Cl)c(N)nc2N)cc1` [ALB 28588, 3-[2-(4-{4-[N′-(3,5-Diamino-6-chloropyrazine-2-carbonyl)guanidino]butyl}phenoxy)ethylamino]pentanedioic acid dimethyl ester] gave a melting point of 84 to 88 °C.

Consider `NC(=O)CNCCOc1ccc(CCCCNC(N)=NC(=O)c2nc(Cl)c(N)nc2N)cc1` [ALB 28683, 2-[2-(4-{4-[N′-(3,5-Diamino-6-chloropyrazine-2-carbonyl)guanidino]butyl}-phenoxy)ethylamino]acetamide], for which the melting point was 92 to 94 °C (dec.).

On to `NC(=NC(=O)c1nc(Cl)c(N)nc1N)NCCCCc1ccc(OCCNCC(=O)O)cc1` [ALB 28897, [2-(4-{4-[N′-(3,5-Diamino-6-chloropyrazine-2-carbonyl)guanidino]butyl}-phenoxy)ethylamino]acetic acid], for which the melting point is 110 to 112 °C (dec.).

Turning to `NC(=O)CN(CCOc1ccc(CCCCNC(N)=NC(=O)c2nc(Cl)c(N)nc2N)cc1)CC(N)=O` [ALB 28062, 2-{Carbamoylmethyl-[2-(4-{4-[N′-(3,5-diamino-6-chloropyrazine-2-carbonyl)-guanidino]butyl}phenoxy)ethyl]amino}acetamide], the melting point was 98 to 100 °C (dec.).

Another data set relates to airway epithelial sodium currents in canine bronchial epithelia (ENaC). Description: In vitro measure of sodium channel blocking activity (short circuit current, Ussing chambers). Format: cell-based. The conditions noted are these: potency in canine bronchial epithelia, reported as fold-enhancement relative to amiloride. Here is the method:
In Vitro Measure of Sodium Channel Blocking Activity and Reversibility One assay used to assess mechanism of action and/or potency of the compounds of the present invention involves the determination of lumenal drug inhibition of airway epithelial sodium currents measured under short circuit current (ISC) using airway epithelial monolayers mounted in Ussing chambers. Cells obtained from freshly excised human, dog, sheep or rodent airways are seeded onto porous 0.4 micron Snapwell™ Inserts (CoStar), cultured at air-liquid interface (ALI) conditions in hormonally defined media, and assayed for sodium transport activity (ISC) while bathed in Krebs Bicarbonate Ringer (KBR) in Using chambers. All test drug additions are to the lumenal bath with half-log dose addition protocols (from 1×10^−11 M to 3×10^−5 M), and the cumulative change in ISC (inhibition) recorded. All drugs are prepared in dimethyl sulfoxide as stock solutions at a concentration of 1×10^−2 M and stored at −20° C. Eight preparations are typically run in parallel; two preparations per run incorporate amiloride and/or benzamil as positive controls. After the maximal concentration ([…]) is administered, the lumenal bath is exchanged three times with fresh drug-free KBR solution, and the resultant ISC measured after each wash for approximately 5 minutes in duration. Reversibility is defined as the percent return to the baseline value for sodium current after the third wash. All data from the voltage clamps are collected via a computer interface and analyzed off-line. Dose-effect relationships for all compounds are considered and analyzed by the Prism 3.0 program. IC50 values, maximal effective concentrations, and reversibility are calculated and compared to amiloride and benzamil as positive controls. […] The results for the compounds of the present invention are reported as fold-enhancement values relative to amiloride.
As for `N=C(NCCCCc1ccc(OCCNCC(N)=O)cc1)NC(=O)c1nc(Cl)c(N)nc1N` [Compound 3], the “Fold Amiloride” value is on record as 10.

For `COC(=O)CC(CC(=O)OC)NCCOc1ccc(CCCCNC(=N)NC(=O)c2nc(Cl)c(N)nc2N)cc1` [Compound 4], the “Fold Amiloride” value came out at 81.

`N=C(NCCCCc1ccc(OCCN(CC(=O)O)CC(=O)O)cc1)NC(=O)c1nc(Cl)c(N)nc1N` [Compound 2]: the “Fold Amiloride” value was found to be 16.

In the case of `N=C(NCCCCc1ccc(OCCN(CC(N)=O)CC(N)=O)cc1)NC(=O)c1nc(Cl)c(N)nc1N` [Compound 1], the “Fold Amiloride” value is 77.
